“Also recorded” adds a separate entry of the source. Like-named read-outs stand apart in the source and are kept apart here. * marks the point of attachment. code Z = not defined here; CHN2 = [N-]=[N+]=C*

The text below walks through data of US7666582B2, “IdeS, an IgG-degrading enzyme of Streptococcus pyogenes” (Hansa Medical Research AB, priority 2001, dated 2010).

The test system of assay [1] is IdeS. Put plainly: Inhibition of IdeS activity by IgG-binding streptococcal proteins. The class given is biochemical, S. pyogenes.
The subject of assay [2] is S. pyogenes. The following applies: in vivo; cited from earlier work.
The target of assay [3] is T1, papain (Carica papaya, UniProt P00784).
T1 sequence (P00784 134-345): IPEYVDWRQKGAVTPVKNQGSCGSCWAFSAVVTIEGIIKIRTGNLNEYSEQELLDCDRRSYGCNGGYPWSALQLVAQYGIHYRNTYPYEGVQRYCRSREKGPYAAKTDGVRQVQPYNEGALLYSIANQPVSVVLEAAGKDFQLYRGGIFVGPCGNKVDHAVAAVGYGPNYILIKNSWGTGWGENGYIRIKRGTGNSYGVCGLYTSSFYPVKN
The note with it: cited from earlier work.

In assay [4] the target is SpeB (Streptococcus pyogenes, UniProt P0C0J0). The following applies: cited from earlier work.
The test system of assay [5] is IdeS. Description: Proteinase inhibition assay (IgG cleavage by IdeS, SDS-PAGE). The class given is biochemical, S. pyogenes. The following applies: 30 min preincubation, IdeS 0.3 μg/ml. The procedure:
Partially purified IdeS (0.3 μg/ml) was incubated with either 20 nM iodoacetic acid, Z-LVG-CHN2 (Björck et al., 1989) at 0.4 mg/ml in 1% DMSO, or E64 (40 μM). The tubes were kept in the dark and incubated for 30 min at room temperature. As controls, IdeS was also kept in phosphate buffered saline (PBS) or in 1% DMSO, the solvent for Z-LVG-CHN2. After 30 min, 5 μl of 10 mg/ml IgG (Sigma) were added, and the volume was adjusted to 100 μl with PBS. Incubation was continued for 60 min at 37° C. The reaction was stopped by the addition of SDS-PAGE sample buffer and samples were analyzed by 12% SDS-PAGE.

Assay [6] relates to S. pyogenes. The note with it: in vitro; cited from earlier work.
The subject of assay [7] is IgG-cleaving activity of S. pyogenes strain AP1 growth medium. Put plainly: Cleavage of IgG in AP1 growth medium with E64 added. Format: biochemical. The note with it: E64 added to the AP1 growth medium, TH medium with 10% human plasma.

Consider “protein G: streptococcal protein that binds the Cγ2-Cγ3 interphase region of IgG”, for which, in assay [1], the “inhibition of IdeS activity” value is on record as “cannot inhibit IdeS activity”.

For “Z-LVG-CHN2: peptide derivate based on the inhibitory reactive site of cystatin C, carrying a diazomethyl ketone group ({code Z}-Leu-Val-Gly-CHN2; reading uncertain)”, the “inhibition of streptococcal growth” value in assay [2] and in assay [6] was “inhibited streptococcal growth” in each case. The inhibition of papain result in assay [3] was “irreversibly inhibit”. Besides, the “inhibition of the proteolytic activity of SpeB” value in assay [4] is “irreversibly inhibit; also recorded: irreversibly block the proteolytic activity of SpeB”. For the same compound, the “inhibition of the activity of IdeS (IgG cleavage)” value (“inhibition of the activity of IdeS” for short) in assay [5] (Z-LVG-CHN2 at 0.4 mg/ml in 1% DMSO) is “efficiently inhibited the activity of IdeS; also recorded: is inhibited”.

On to `O=C(O)CI` [iodoacetic acid], for which the “inhibition of the activity of IdeS” value in assay [5] (20 nM iodoacetic acid) was “efficiently inhibited the activity of IdeS”.

Consider `CC(C)C[C@H](NC(=O)[C@H]1O[C@@H]1C(=O)O)C(=O)NCCCCN=C(N)N` (relative stereo) [E64, trans-epoxysuccinyl-L-leucylamido-(4-Guanidino) butane], for which the “inhibition of streptococcal growth” value in assay [2] and in assay [6] was “only Z-LVG-CHN2 inhibited streptococcal growth” in each case. For the same compound, the “inhibition of the cleavage of IgG (31 kDa product)” value in assay [7] is reported as “did not inhibit the cleavage of IgG”. Moreover, the “inhibition of the proteolytic activity of SpeB” value in assay [4] is recorded as “efficiently blocked; also recorded: irreversibly block the proteolytic activity of SpeB”. The “inhibition of the activity of IdeS” value in assay [5] (E64 (40 μM)) is “had no effect on the enzyme; also recorded: not affected”.
